Where “and” joins values, the source holds several entries; their conditions need not be identical. Identical values can stand only once. Like-named read-outs stand apart in the source and are kept apart here.
Tests used:
[1] = molecular target: T1, geranylgeranyl protein transferase (GGPT) I (Rattus norvegicus, UniProt P53610+Q04631); assay: Inhibition of geranylgeranyl protein transferase I (Ras-CVLL as acceptor); assay type: biochemical; settings: for IC50: enzyme inhibition
T1 construct: were partially purified from rat brain by ammonium sulfate fractionation followed by Q-Sepharose
T1 sequence (P53610 whole entry, one chain of several): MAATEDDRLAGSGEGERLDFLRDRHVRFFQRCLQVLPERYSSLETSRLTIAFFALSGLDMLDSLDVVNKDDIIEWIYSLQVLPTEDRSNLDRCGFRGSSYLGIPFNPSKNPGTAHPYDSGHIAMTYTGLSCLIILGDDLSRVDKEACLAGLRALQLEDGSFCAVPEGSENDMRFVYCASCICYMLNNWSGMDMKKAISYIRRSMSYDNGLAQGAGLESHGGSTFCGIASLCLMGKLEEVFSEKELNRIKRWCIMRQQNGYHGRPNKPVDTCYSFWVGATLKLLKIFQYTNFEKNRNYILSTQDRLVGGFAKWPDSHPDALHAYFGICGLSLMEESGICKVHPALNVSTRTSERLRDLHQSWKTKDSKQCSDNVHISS
Source text: 1. In vitro enzyme assays: Inhibition of farnesyl protein transferase and geranylgeranyl protein transferase.
Both farnesyl protein transferase (FPT) and geranylgeranyl protein transferase (GGPT) I were partially purified from rat brain by ammonium sulfate fractionation followed by Q-Sepharose (Pharmacia, Inc.) anion exchange chromatography essentially as described by Yokoyama et al (Yokoyama, K., et al., (1991), A protein geranylgeranyltransferase from bovine brain: Implications for protein prenylation specificity, Proc. Natl. Acad. Sci USA 88: 5302-5306, the disclosure of which is incorporated herein by reference thereto). Human farnesyl protein transferase was also expressed in E. coli, using cDNA clones encoding both the α and β subunits. The methods used were similar to those published (Omer, C. et al., (1993), Characterization of recombinant human farnesyl protein transferase: Cloning, expression, farnesyl diphosphate binding, and functional homology with yeast prenyl-protein transferases, Biochemistry 32:5167-5176). Human farnesyl protein transferase was partially-purified from the soluble protein fraction of E. coli as described above. […] Two forms of val^12-Ha-Ras protein were prepared as substrates for these enzymes, differing in their carboxy terminal sequence. One form terminated in cysteine-valine-leucine-serine (Ras-CVLS) the other in cystein-valine-leucine-leucine (Ras-CVLL). Ras-CVLS is a substrate for the farnesyl protein transferase while Ras-CVLL is a substrate for geranylgeranyl protein transferase I. The cDNAs encoding these proteins were constructed so that the proteins contain an amino-terminal extension of 6 histidine residues. Both proteins were expressed in Escherichia coli and purified using metal chelate affinity chromatography. The radiolabelled isoprenyl pyrophosphate substrates, [^3H]farnesyl pyrophosphate and [3H]geranylgeranyl pyrophosphate, were purchased from DuPont/New England Nuclear.
The geranylgeranyl protein transferase I assay was essentially identical to the farnesyl protein transferase assay described above, with two exceptions: [^3H]geranylgeranylpyrophosphate replaced farnesyl pyrophosphate as the isoprenoid donor and Ras-CVLL was the protein acceptor.

[2] = system: Normal human HEPM fibroblasts; assay: Cell Mat Assay: density of mat cells (mIC50); assay type: cell-based
In short: (§1)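 Serial compound dilutions added 24 h after planting T24-BAG4 cells onto a mat of normal cells, then 14 d colony growth; monolayers glutaraldehyde-fixed and tumor cells X-Gal stained. tIC50 and mIC50 from microscope counts of colonies, cells per colony and mat cell density.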

[3] = system: T24-BAG4 human bladder carcinoma cells expressing an activated H-ras gene; assay: Cell Mat Assay: tumor cell colony inhibition (tIC50); assay type: cell-based; settings: inhibition of tumor cell growth
In short: as §1

[4] = system: Ras-CVLS processing in COS monkey kidney cells; assay: COS cell assay: Ras-CVLS processing (Western blot); assay type: cell-based; settings: COS cells; for IC50: read-out: Inhibition of Ras Processing IC50; for Inhibition of Ras Processing at the concentration in parentheses: (5) μM
Procedure: 2. […] Effect of farnesyl protein transferase inhibitors on Ras processing and on disordered cell growth induced by transforming Ras. COS monkey kidney cells were transfected by electroporation with the plasmid pSV-SPORT (Gibco/BRL) containing a cDNA insert encoding either Ras-CVLS or Ras-CVLL, leading to transient overexpression of a Ras substrate for either farnesyl protein transferase or geranylgeranyl protein transferase I, respectively (see above). […] After 24 hours, media was removed and fresh media containing the appropriate drugs was re-added. 48 hours after electroporation cells were examined under the microscope to monitor disordered cell growth induced by transforming Ras. Cells expressing transforming Ras become more rounded and refractile and overgrow the monolayer, reminiscent of the transformed phenotype. […] Cells were lysed by homogenization and cell debris was removed by centrifugation at 2000×g for 10 min. Cellular protein was precipitated by addition of ice-cold trichloroacetic acid and redissolved in 100 μl of SDS-electrophoresis sample buffer. […] Proteins resolved on the gels were electroblotted onto nitrocellulose membranes for immunodetection. […] E., et al., (1982), Monoclonal antibodies to the p21 products of the transforming gene of Harvey murine sarcome virus and of the cellular ras gene family, J. Virol. 43: 294-304), in PBS containing 1% fetal calf serum for one hour at room temperature. After washing, membranes were incubated for one hour at room temperature with a 1:5000 dilution of secondary antibody, rabbit anti-rat IgG conjugated to horseradish peroxidase, in PBS containing 1% fetal calf serum.

[5] = molecular target: T2, farnesyl protein transferase (FPT), partially purified from rat brain (Rattus norvegicus, UniProt Q02293+Q04631); assay: Inhibition of farnesyl protein transferase (transfer of [3H]farnesyl to Ras-CVLS); assay type: biochemical; settings: read-out: FPT IC50
T2 construct: were partially purified from rat brain by ammonium sulfate fractionation followed by Q-Sepharose
T2 sequence (Q02293 whole entry, one chain of several): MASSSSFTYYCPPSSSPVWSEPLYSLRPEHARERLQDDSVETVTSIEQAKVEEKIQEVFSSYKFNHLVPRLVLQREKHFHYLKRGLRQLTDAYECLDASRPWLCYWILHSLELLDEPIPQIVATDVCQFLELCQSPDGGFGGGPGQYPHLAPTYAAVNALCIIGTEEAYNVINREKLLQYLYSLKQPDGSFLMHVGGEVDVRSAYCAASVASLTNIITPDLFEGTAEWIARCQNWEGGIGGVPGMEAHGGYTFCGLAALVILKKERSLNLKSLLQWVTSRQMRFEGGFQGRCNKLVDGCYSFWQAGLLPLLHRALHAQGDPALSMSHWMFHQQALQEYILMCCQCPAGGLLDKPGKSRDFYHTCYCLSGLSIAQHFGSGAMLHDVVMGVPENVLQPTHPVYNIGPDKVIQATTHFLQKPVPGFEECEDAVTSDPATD
In short: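 Transfer of [3H]farnesyl onto E. coli-expressed, His6-tagged Ras-CVLS was measured after 30 min at room temperature. Radiolabelled Ras was TCA-precipitated on ice and filter-harvested, and inhibition was expressed as percent of DMSO control.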

[6] = Ras-CVLS farnesylation, partially purified rat brain FPT

SMILES | IC50 [1] | IC50 [5, 6] | IC50 ([5]; enzyme inhibition) | IC50 ([2]; Homo sapiens, Fibroblast) | IC50 ([3]; Homo sapiens) | also measured
O=C(Cc1cc[n+]([O-])cc1)N1CCC(=C2c3ccc(Cl)cc3CCc3cccnc32)CC1 [227 (5.102)] | > 41 µM | – | – | – | – | IC50 [2]: > 50 µM; IC50 [3]: 4 µM; IC50 [4]: 1 µM
O=C(c1ccc(O)c(O)c1)N1CCC(=C2c3ccc(Cl)cc3CCc3cccnc32)CC1 [Example 8] | 42 µM | 2.3 µM | 2.3 µM | – | – | –
O=C(CN1C(=O)c2ccccc2C1=O)N1CCN(C2c3ccc(Cl)cc3CCc3cccnc32)CC1 (stereo not drawn) [Example 76] | > 50 µM | – | – | > 50 µM | > 50 µM | –
O=C(Cc1ccncc1)N1CCC(=C2c3ccc(Cl)cc3CCc3cc(Cl)cnc32)CC1 [Example 180] | > 42 µM | 0.04 µM | – | 50 µM | 12.5 µM | IC50 [2]: > 50 µM; IC50 [3]: 18 µM
O=C(Cc1ccncc1)N1CCC(=C2c3ccc(Br)cc3CCc3cccnc32)CC1 [Example 181] | > 42 µM | 0.23 µM | – | – | – | –
O=C(Cc1ccncc1)N1CCC(=C2c3ccc(Cl)cc3CCc3cc(Br)cnc32)CC1 [Example 246] | > 40 µM | 0.06 µM | – | 50 µM | – | IC50 ([2]; listed as 246 (5.121)): > 50 µM
CO[C@](C(=O)N1CCC(=C2c3ccc(Cl)cc3CCc3cccnc32)CC1)(c1ccccc1)C(F)(F)F [Example 287] | > 40 µM | 0.72 µM and 5.02 µM | – | > 50 µM | – | IC50 ([4]; Primates, COS): > 10 µM
CO[C@@](C(=O)N1CCC(=C2c3ccc(Cl)cc3CCc3cccnc32)CC1)(c1ccccc1)C(F)(F)F [Example 290] | > 38 µM | 3.8 µM and 2.55 µM | – | > 50 µM | 12.5 µM | IC50 [3]: 6.25 µM and 8 µM
CC(C)(C)c1cnc2c(c1)CCc1cc(Cl)ccc1C2=C1CCN(C(=O)Cc2cccnc2)CC1 [Example 304] | > 40 µM | 2.63 µM | – | – | – | IC50 [2]: > 50 µM
O=C(Nc1cccnc1)N1CCN(C2c3ccc(Cl)cc3CCc3cc(Br)cnc32)CC1 (stereo not drawn) [Example 354] | 1000 µM | 0.21 µM | – | ≥ 25 µM | 6.25 µM | –
CN1CCC(CC(=O)N2CCC(C3c4ccc(Cl)cc4C=Cc4cc(Br)cnc43)CC2)CC1 (stereo not drawn) [Example 400-B] | > 38 µM | 0.068 µM | 0.068 µM | – | < 1.6 µM | –
O=C(Cc1ccncc1)N1CCC(C2c3ccc(Cl)cc3CCc3cc(Br)cnc32)CC1 (stereo not drawn) [Example 400-E] | – | 0.04 µM | 0.04 µM | 18 µM | < 1.6 µM | GGPT inhibition at the concentration in parentheses ([1]; (38) μM): 30 (38)
O=C(Cc1cc[n+]([O-])cc1)N1CCC(C2c3ccc(Cl)cc3CCc3cc(Br)cnc32)CC1 (stereo not drawn) [Example 400-F] | – | 0.036 µM | 0.036 µM | > 25 µM | < 1.6 µM | GGPT inhibition at the concentration in parentheses ([1]; (36) μM): 0 (36)
CN1CCC(CC(=O)N2CCC(=C3c4ccc(Cl)cc4CCc4cc(Br)cnc43)CC2)CC1 [Example 400-H] | 1000 µM | 0.24 µM | 0.24 µM | – | – | GGPT inhibition at the concentration in parentheses ([1]; (36) μM): 0 (36); Inhibition of Ras Processing at the concentration in parentheses [4]: 100 (5); IC50 ([4]; Primates, COS): 2.5 µM
CN1CCC(CC(=O)N2CCC(C3c4ccc(Cl)cc4CCc4cc(Br)cnc43)CC2)CC1 (stereo not drawn) [Example 400-J] | 1000 µM | 0.14 µM | 0.14 µM | – | – | GGPT inhibition at the concentration in parentheses ([1]; (36) μM): 6 (36)
CN1CCCC(CC(=O)N2CCC(=C3c4ccc(Cl)cc4CCc4cc(Br)cnc43)CC2)C1 (stereo not drawn) [Example 400-K] | 1000 µM | 0.21 µM | 0.21 µM | – | – | GGPT inhibition at the concentration in parentheses ([1]; (37) μM): 0 (37); Inhibition of Ras Processing at the concentration in parentheses [4]: 100 (5); IC50 ([4]; Primates, COS): 2.2 µM
O=C(Cc1ccncc1)N1CCC(=C2c3ccc(Cl)cc3CCc3cc(I)cnc32)CC1 [Example 400] | – | 0.068 µM | 0.068 µM | > 25 µM | 1.6 µM | GGPT inhibition at the concentration in parentheses ([1]; (36) μM): 29 (36)
O=C(Cc1cc[n+]([O-])cc1)N1CCC(=C2c3ccc(Cl)cc3CCc3cc(I)cnc32)CC1 [Example 401] | 1000 µM | 0.063 µM and 0.08 µM | 0.063 µM and 0.08 µM | > 25 µM | < 1.6 µM | GGPT inhibition at the concentration in parentheses ([1]; (34) μM): 7 (34)
CC1(C2CCN(C(=O)Cc3ccncc3)CC2)c2ccc(Cl)cc2CCc2cc(Br)cnc21 (stereo not drawn) [Example 410-A] | ~40 µM | 0.086 µM | 0.086 µM | – | – | GGPT inhibition at the concentration in parentheses ([1]; (35) μM): 47 (35)
CC1(C2CCN(C(=O)Cc3cc[n+]([O-])cc3)CC2)c2ccc(Cl)cc2CCc2cc(Br)cnc21 (stereo not drawn) [Example 410-B] | 1000 µM | 0.084 µM | 0.084 µM | – | – | GGPT inhibition at the concentration in parentheses ([1]; (35) μM): 21 (35)
O=C(CN1CCS(=O)(=O)CC1)N1CCC(=C2c3ccc(Cl)cc3CCc3cc(Br)cnc32)CC1 [Example 410-G] | – | 0.21 µM | 0.21 µM | – | – | GGPT inhibition at the concentration in parentheses ([1]; (33) μM): 32 (33); IC50 ([4]; Primates, COS): 4 µM
O=C(Cc1cc[n+]([O-])cc1)N1CCC(=C2c3ccc(Cl)cc3CCc3cc(Cl)cnc32)CC1 [Example 411-W] | – | – | 0.16 µM and 0.17 µM | – | – | GGPT inhibition at the concentration in parentheses ([1]; (42) μM): 3 (42)
O=C(Cc1cc[n+]([O-])cc1)N1CCC(=C2c3ccc(Cl)cc3C=Cc3cc(Br)cnc32)CC1 [Example 417-B] | – | – | 0.14 µM | > 25 µM | < 1.6 µM | GGPT inhibition at the concentration in parentheses ([1]; (32) μM): 15 (32)
O=C(Cc1ccncc1)N1CCC(C2c3ccc(Cl)cc3C(=NO)Cc3cccnc32)CC1 (stereo not drawn) [Example 419] | – | – | < 0.12 µM | – | – | GGPT inhibition at the concentration in parentheses ([1]; (41) μM): 0 (41)

Reference: patent US20030055065A1, “Tricyclic amide and urea compounds useful for inhibition of G-protein function and for treatment of proliferative diseases” (priority 1993, published 2003)
